Series [1] concerns the target T1, human histamine H4 receptor (Homo sapiens, UniProt Q9H3N8).
T1 construct: made in house; host or cells: Sf9 cells (membrane preparations)
As to the kind of experiment: [3H]histamine displacement assay, membranes of Sf9 cells expressing hH4R with Gαi2 and Gβ1γ2. As to conditions: Sf9 membranes, mean within 95% CI. The series is classed as binding. On the procedure:
The affinity of compounds 2–20 for hH4R was evaluated in a binding assay as previously described. [^3H]Histamine was used as a radioligand and hH4R was expressed in Sf9 cells with G protein Gαi2 and Gβ1γ2 subunits. The pharmacological results represented as Ki values are listed in Table 1 (for alicyclic derivatives) and Table 2 (for aliphatic derivatives). […] Results depended on the substituent in the four positions of a triazine (a main structure).
Affinities of all triazine derivatives were determined in a [^3H] histamine (f.c. 10 nM) displacement assay using membrane preparations from Sf9 cells expressing human H4R and co-expressed with Gαi2 and Gβ1γ2 subunits as described previously. Nonspecific binding was determined in the presence of unlabelled JNJ7777120 ([…]).

The nature of series [2]: PAMPA assay (blood-brain barrier permeability). The series is classed as in vitro ADME. On the procedure:
This test is a popular method for estimating the possibility of crossing BBB through passive transport. […] Caffeine was used as a standard well-permeable compound.
The Gentest^TM PAMPA Plate System, purchased from Corning (Tewksbury, MA, USA), was used for permeability evaluation. Caffeine (a reference) and the compound tested were dissolved in DMSO (10 mM stocks) and after dilution to 200 μM in PBS (pH 7.4), added to donor wells. Then, after incubation for 5 h at room temperature, concentrations of tested compounds in donor and acceptor wells were estimated by the mass spectra (LC/MS) method as described previously. The UPLC/MS Waters […] TQD system with the TQ Detector (Waters, Milford, CT, USA) was used for this detection. The assay was performed in triplicate. The permeability value (Pe) was calculated using the formula described by Chen et al..

A further series concerns HepG2 cells. As to the kind of experiment: Toxicity evaluation, MTS assay in HepG2 cells. It counts as cell-based, human. The text has this: (§1) Toxic substances can affect the cells. Early in the research process, it is crucial to determine whether obtained compounds can induce such effects. From our series of compounds, compound 6 was selected for toxicity evaluation. MTS assay was used to test toxicity on HepG2 and SH-SY5Y cell lines. HepG2 cells closely reflect the human liver cell model whereas SH-SY5Y neuroblastoma cells are used in models of neurodegenerative diseases (especially Parkinson’s disease) to study the cellular and molecular factors that lead to these disorders.
(§2) Compound 6, at concentrations ranging from 0.78 µM to 50 µM, was incubated with the respective cell lines for 48 h (HepG2) or 24 h (SH-SY5Y). Then, MTS reagent was added and absorbances at 490 nm were read after 1 h. […] The reduction in SH-SY5Y cell viability (Figure 6B) of an average of 4–12% was observed over the range of concentrations.
The hepatoma cell line HepG2 (ATCC® HB-8065TM) and SH-SY5Y CRL-2266 neuroblastoma cell line were used to evaluate the toxicity of tested compounds. Tests were conducted as described previously. CellTiter 96® Aqueous Non-Radioactive Cell Proliferation Assay was purchased from Promega (Madison, WI, USA). Compounds were tested at 7 concentrations (0.78, 1.56, 3.125, 6.25, 12.5, 25 and 50 µM). Cell viability was determined after incubation with compounds for […]. […]

Another series has as its system SH-SY5Y cells. As to the kind of experiment: Toxicity evaluation, MTS assay in SH-SY5Y cells. It counts as cell-based, human.
Source text: as §1, §2
The hepatoma cell line HepG2 (ATCC® HB-8065TM) and SH-SY5Y CRL-2266 neuroblastoma cell line were used to evaluate the toxicity of tested compounds. Tests were conducted as described previously. CellTiter 96® Aqueous Non-Radioactive Cell Proliferation Assay was purchased from Promega (Madison, WI, USA). Compounds were tested at 7 concentrations (0.78, 1.56, 3.125, 6.25, 12.5, 25 and 50 µM). Cell viability was determined after incubation with compounds for […]. Each experiment was performed twice in triplicate.

The next series relates to mice. Kind of series: Formalin test. It counts as in vivo. As to conditions: for Paw licking/biting, late phase of formalin test, % of the control group: 15–30 min after formalin. The protocol: The blockade of H4Rs expressed in inflammatory cells results in anti-inflammatory and analgesic effects. On the contrary, the activation of neuronal H4Rs leads to analgesia.
The procedure used was essentially the same as that described previously. […] The total time (in s) spent on licking the injected paw during periods of 0–5 min (early phase, neurogenic) and 15–30 min (late phase, inflammatory) was measured and was considered as an indicator of nociceptive behaviour. Before formalin injection different groups of mice were treated i.p. with vehicle (10 mL/kg, negative control) and the dose–response of the investigated compound.

The target of series [3] is T2, hH4R (Homo sapiens, UniProt Q9H3N8). As to the kind of experiment: cAMP accumulation assay (LANCE Ultra cAMP, CHO-K1 cells stably expressing hH4R). Set-up: expressed in transfected cells. As to conditions: antagonist mode. The series is classed as cell-based.
T2 sequence (Q9H3N8 whole entry): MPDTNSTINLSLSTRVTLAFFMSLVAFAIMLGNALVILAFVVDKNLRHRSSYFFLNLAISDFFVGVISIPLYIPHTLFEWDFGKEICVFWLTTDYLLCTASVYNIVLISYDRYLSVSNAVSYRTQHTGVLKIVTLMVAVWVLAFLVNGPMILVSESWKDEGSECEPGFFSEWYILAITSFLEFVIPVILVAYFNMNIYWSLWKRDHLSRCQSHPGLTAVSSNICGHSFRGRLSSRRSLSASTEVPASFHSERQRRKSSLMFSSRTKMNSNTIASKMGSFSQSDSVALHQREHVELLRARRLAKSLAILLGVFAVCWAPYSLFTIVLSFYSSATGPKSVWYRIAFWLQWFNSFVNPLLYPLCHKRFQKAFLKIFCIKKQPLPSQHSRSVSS
For series [4], the target named is T2, hH4R. As to the kind of experiment: β-arrestin recruitment assay (LiveBLAzer, Tango-H4-bla U2OS cells). The series is classed as cell-based. Details: expressed in transfected cells; host or cells: Tango-H4-bla U2OS cells.
Setting [5] is: even at the highest concentration (50 µM).

Each structure is given as a SMILES string. Entries after “also recorded” stand apart in the source; their conditions may differ.

T1 sequence (Q9H3N8 whole entry): as above

`CN1CCN(c2nc(N)nc(CC3CCCC3)n2)CC1` [Compound 6, 4-(Cyclopentylmethyl)-6-(4-methylpiperazin-1-yl)-1,3,5-triazin-2-amine] showed a melting point of 165 to 168 °C. The affinity in series [1] corresponds to a Ki of 63 nM. Also, the “Mass Retention (R)” value in series [2] (200 µM, 5 h) worked out at 3.15%. Besides, the Papp at 5 h, 200 µM in series [2] (PBS pH 7.4, permeable if Pe > 1.5 × 10^−6 cm/s, read-out: Pe (permeability coefficient) ± SD) came to 12.3 ± 0.31 ×10⁻⁶ cm/s. Also, the “Toxicity in HepG2 cells (MTS)” value in the series on HepG2 cells (0.78–50 µM, 48 h incubation) is on record as “no toxicity up to 50 µM; also recorded: did not show significant toxicity in the tested concentration range (except for 6.25 µM concentration)”. Also, the “Reduction of HepG2 cell viability” value in the series on HepG2 cells (setting [5]) is no more than 50%. Also, the “Reduction in SH-SY5Y cell viability, average over the range of concentrations” value in the series on SH-SY5Y cells (0.78–50 µM) is given as 4–12%. Besides, the “Toxicity in SH-SY5Y cells (MTS)” value with SH-SY5Y cells (0.78–50 µM, 24 h incubation) is listed as “no toxicity up to 50 µM”. The “Reduction of SH-SY5Y cell viability” value with SH-SY5Y cells (setting [5]) was no more than 50%. Besides, the “Paw licking/biting, late phase of formalin test, % of the control group” value in the series on mice (50 mg/kg i.p.) was 44.02 % of the control group. The “Paw licking/biting, late phase of formalin test, % of the control group” value in the series on mice (75 mg/kg i.p.) is 56.62 % of the control group. In the series on mice (i.p., 0–5 min after formalin), the “Duration of nociceptive response, acute phase of formalin test” value is “did not significantly affect”. Besides, at hH4R [3], the “cAMP hH4R % of max. Antagonist Activity at 10 µM” value stood at 100%. Moreover, the half-inhibitory concentration (IC50) at hH4R [4] (antagonist mode, histamine 500 nM (EC80), Tango-H4-bla U2OS cells, read-out: β-arrestin hH4R IC50 ± SEM) is 10 ± 1 nM. The “β-arrestin hH4R % of max. Antagonist Activity at 10 µM” value on hH4R [4] (at 10 µM, antagonist mode) worked out at 101%. Besides, at hH4R [4] (calculated from IC50 by Leff–Dougall variant of Cheng–Prusoff equation, read-out: pKb β-arrestin ± SEM (converted)), the Kb was 1.62 nM.

Values taken from article PMC10224356, “Trisubstituted 1,3,5-Triazines as Histamine H4 Receptor Antagonists with Promising Activity In Vivo” (Molecules, 2023).
